Source: patent US20210238170A1, “5,5-Difluoro- and 5-Fluoro-5-Methyl-C-Glycoside Derivatives Useful As Dual SGLT1 / SGLT2 Modulators” (Janssen Pharmaceutica NV, priority 2018, published 2021)
Like-named read-outs stand apart in the source and are kept apart here.

Columns and labels:
human SGLT1 = molecular target: T1, human SGLT1 (Homo sapiens, UniProt P13866); experiment: SGLT1 in vitro assay: Na-dependent 14C-AMG uptake in CHO-K1 cells stably expressing human SGLT1; type: cell-based; conditions: for inhibition at 0.3 µM: read-out: SGLT1 % Inh @ 0.3 μM
T1 construct: expressed in transfected cells
T1 sequence (P13866 1-664): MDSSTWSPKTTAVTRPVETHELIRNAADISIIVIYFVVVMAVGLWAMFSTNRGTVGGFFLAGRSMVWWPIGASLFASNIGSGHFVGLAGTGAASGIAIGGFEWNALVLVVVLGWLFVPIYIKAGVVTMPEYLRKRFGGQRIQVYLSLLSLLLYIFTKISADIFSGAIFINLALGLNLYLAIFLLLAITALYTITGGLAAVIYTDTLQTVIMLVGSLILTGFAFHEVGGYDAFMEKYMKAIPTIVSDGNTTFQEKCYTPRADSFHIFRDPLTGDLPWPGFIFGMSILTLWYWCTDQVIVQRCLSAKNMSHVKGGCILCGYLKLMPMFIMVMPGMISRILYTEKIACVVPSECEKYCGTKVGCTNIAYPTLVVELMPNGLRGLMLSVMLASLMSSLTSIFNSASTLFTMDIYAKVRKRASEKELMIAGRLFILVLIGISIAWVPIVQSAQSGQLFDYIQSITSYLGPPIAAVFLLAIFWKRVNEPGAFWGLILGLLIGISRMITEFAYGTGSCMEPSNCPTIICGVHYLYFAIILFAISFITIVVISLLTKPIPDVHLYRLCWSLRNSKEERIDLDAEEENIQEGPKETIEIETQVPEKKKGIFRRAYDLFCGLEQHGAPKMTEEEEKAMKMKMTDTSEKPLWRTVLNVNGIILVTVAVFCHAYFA
Method in brief: (§1)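 Sodium-dependent uptake of 14C-α-methyl-glucopyranoside ([…]) over 2 h at 37°C was counted by scintillation in stable human SGLT2- or SGLT1-CHO-K1 lines pretreated with 10 mM Na-butyrate. Compounds at 0.001–10 μM were preincubated for 10 min in pH 7.4 buffer with 137 mM NaCl; output is %-inhibition or IC50.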

SD rats = experiment: Oral Glucose Tolerance Test (OGTT) in SD rats: blood glucose excursion AUC and urine glucose excretion; type: in vivo, rat; conditions: mean ± SE; for Urine Glucose Excretion (g/0-4 hr): n = 8
Procedure: Biological Example 2: In Vivo Assay
Oral Glucose Tolerance Test (OGTT) in SD Rats
Overnight fasted SD rats were allocated into vehicle or test compound treatment groups based on their body weights (n=8 in each group). The animals were orally dosed with vehicle or test compound at a volume of 10 ml/kg at 30-minute prior to OGTT. The animals then received an OGTT challenge with 2 g/kg (50% glucose solution at the volume of 4 ml/kg, orally). The animals were immediately transferred into metabolic cages after they were dosed with the glucose. Blood glucose levels were measured at 0 (pre-OGTT), 30, 60, and 120 minutes after OGTT using one-touch Glucometer. Blood glucose excursion AUC (area under the curve of blood glucose) was determined from the blood glucose levels measured at the timepoints.
Table 9 below, presents the measured efficacy of the test compound(s), expressed as the percentage (%) of blood glucose AUC vs that in vehicle group. The data is interpreted such that, the smaller the percentage of blood glucose AUC of compound vs vehicle, the greater the efficacy of the test compound. Urine volume and urine glucose concentrations (tested by using Olympus system with Genzyme diagnostics assay reagent) were measured to determine the urine glucose excretion (UGE) in 4-hr period after OGTT (0-4 hours).

human SGLT2 = molecular target: T2, human SGLT2 (Homo sapiens, UniProt P31639); experiment: SGLT2 in vitro assay: Na-dependent 14C-AMG uptake in CHO-K1 cells stably expressing human SGLT2; type: cell-based; conditions: for inhibition at 0.3 µM: read-out: SGLT2 % Inh @ 0.3 μM
T2 construct: expressed in transfected cells
T2 sequence (P31639 1-672): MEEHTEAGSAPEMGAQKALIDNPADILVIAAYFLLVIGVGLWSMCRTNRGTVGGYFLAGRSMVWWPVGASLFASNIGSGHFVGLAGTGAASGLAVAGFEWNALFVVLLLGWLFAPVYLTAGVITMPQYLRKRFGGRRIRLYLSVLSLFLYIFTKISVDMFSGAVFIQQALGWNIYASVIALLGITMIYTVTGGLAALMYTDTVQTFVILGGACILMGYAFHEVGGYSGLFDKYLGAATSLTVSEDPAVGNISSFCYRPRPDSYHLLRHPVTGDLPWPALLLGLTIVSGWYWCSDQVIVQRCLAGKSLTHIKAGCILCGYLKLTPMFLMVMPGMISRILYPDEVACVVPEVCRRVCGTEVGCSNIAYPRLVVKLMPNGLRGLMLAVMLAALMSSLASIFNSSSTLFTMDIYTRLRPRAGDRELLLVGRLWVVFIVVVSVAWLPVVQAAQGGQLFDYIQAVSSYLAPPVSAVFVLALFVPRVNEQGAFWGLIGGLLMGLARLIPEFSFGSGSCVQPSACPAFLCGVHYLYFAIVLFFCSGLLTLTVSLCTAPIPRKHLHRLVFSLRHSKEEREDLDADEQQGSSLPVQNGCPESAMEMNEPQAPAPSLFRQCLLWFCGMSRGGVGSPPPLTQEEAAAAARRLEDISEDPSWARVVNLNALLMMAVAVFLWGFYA
Method in brief: as §1

[1] = CHO-K1 cells stably expressing human SGLT1, 14C-AMG uptake, compounds of formula (I) where R0 is fluoro
[2] = Rattus norvegicus, 2 h, oral dose 1 mg/kg, n = 8, read-out: 120-min Blood Glucose AUC vs Vehicle (%)
[3] = Rattus norvegicus, 2 h, oral dose 10 mg/kg, n = 8, read-out: 120-min Blood Glucose AUC vs Vehicle (%)
[4] = CHO-K1 cells stably expressing human SGLT2, 14C-AMG uptake, compounds of formula (I) where R0 is fluoro
[5] = @ 0.3 μM, CHO-K1 cells stably expressing human SGLT1, 14C-AMG uptake
[6] = @ 0.3 μM, CHO-K1 cells stably expressing human SGLT2, 14C-AMG uptake
[7] = 0.3 μM, CHO-K1 cells expressing human SGLT1
[8] = CHO-K1 cells expressing human SGLT1, 14C-AMG uptake
[9] = 0.3 μM, CHO-K1 cells expressing human SGLT2
[10] = CHO-K1 cells expressing human SGLT2, 14C-AMG uptake

Row | Structure (SMILES) | IC50 (human SGLT1; [1]) | response vs control in vivo at 1 mg/kg (SD rats; [2]) | response vs control in vivo at 10 mg/kg (SD rats; [3]) | Urine Glucose Excretion (g/0-4 hr) (SD rats; oral dose 1 mg/kg) | Urine Glucose Excretion (g/0-4 hr) (SD rats; oral dose 10 mg/kg) | IC50 (human SGLT2; [4]) | inhibition at 0.3 µM (human SGLT1; [5]) | response vs control in vivo at 3 mg/kg (SD rats; Rattus norvegicus, 2 h, oral dose 3 mg/kg, n = 8, read-out: 120-min Blood Glucose AUC vs Vehicle (%)) | Urine Glucose Excretion (g/0-4 hr) (SD rats; oral dose 3 mg/kg) | inhibition at 0.3 µM (human SGLT2; [6]) | inhibition at 0.3 µM (human SGLT1; [7]) | IC50 (human SGLT1; [8]) | inhibition at 0.3 µM (human SGLT2; [9]) | IC50 (human SGLT2; [10]) | SGLT1 % Inh @ 0.3 μM (human SGLT1; [5]) | SGLT2 % Inh @ 0.3 μM (human SGLT2; [6])
1 | Cc1cc(O)c([C@@H]2O[C@H](CO)C(F)(F)[C@H](O)[C@H]2O)cc1Cc1cc2ccccc2s1 [Compound 25, (2S,3R,4R,6R)-2-(5-(benzo[b]thiophen-2-ylmethyl)-2-hydroxy-4-methylphenyl)-5,5-difluoro-6-(hydroxymethyl)tetrahydro-2H-pyran-3,4-diol] | 56 nM | 67.8 ± 1.7% | 36.5 ± 1.1% | 0.001 g/0-4 hr | 0.499 ± 0.04 g/0-4 hr | 3.8 nM | – | – | – | – | – | – | – | – | – | –
2 | CCc1ccc(Cc2cc([C@@H]3O[C@H](CO)C(F)(F)[C@H](O)[C@H]3O)c(O)c3c2OCC3)cc1 [Compound 30] | 145 nM | 86 ± 3.4% | 72 ± 2.3% | 0.001 ± 0.0001 g/0-4 hr | 0.001 ± 0.0002 g/0-4 hr | 7.2 nM | 56.7% | 80.3 ± 1.6% | 0.001 ± 0.0002 g/0-4 hr | 62.4% | – | – | – | – | – | –
3 | CCc1cc(O)c([C@@H]2O[C@H](CO)C(F)(F)[C@H](O)[C@H]2O)cc1Cc1ccc(OC)cc1 [Compound 88, (2S,3R,4R,6R)-2-(4-ethyl-2-hydroxy-5-(4-methoxybenzyl)phenyl)-5,5-difluoro-6-(hydroxymethyl)-tetrahydro-2H-pyran-3,4-diol] | 41 nM | 65.9 ± 1.8% | 41.6 ± 1.1% | 0.046 ± 0.014 g/0-4 hr | 0.349 ± 0.023 g/0-4 hr | 1.7 nM | 77.2% | – | – | 88.6% | – | – | – | – | – | –
4 | COc1ccc(Cc2cc([C@@H]3O[C@H](CO)C(F)(F)[C@H](O)[C@H]3O)c(O)cc2OC)cc1 [Compound 91, (2S,3R,4R,6R)-5,5-difluoro-2-(2-hydroxy-4-methoxy-5-(4-methoxybenzyl)phenyl)-6-(hydroxymethyl)-tetrahydro-2H-pyran-3,4-diol] | 74 nM | 61.6 ± 3.9% | 41.3 ± 2.3% | 0.026 ± 0.007 g/0-4 hr | 0.089 ± 0.01 g/0-4 hr | 3.2 nM | 74.3% | – | – | 76.3% | – | – | – | – | – | –
5 | C[C@]1(F)[C@H](O)[C@@H](O)[C@H](c2cc(Cc3ccc4c(c3)OCCO4)c(Cl)cc2O)O[C@@H]1CO [Compound 3, (2S,3R,4R,5S,6R)-2-[4-chloro-5-(2,3-dihydro-1,4-benzodioxin-6-ylmethyl)-2-hydroxy-phenyl]-5-fluoro-6-(hydroxymethyl)-5-methyl-tetrahydropyran-3,4-diol] | – | 91.3 ± 2% | 69.3 ± 1.9% | 0.001 g/0-4 hr | 0.001 g/0-4 hr | – | – | – | – | – | 45.3% | 269 nM | 89.4% | 2.1 nM | – | –
6 | COc1cc(O)c([C@@H]2O[C@H](CO)[C@@](C)(F)[C@H](O)[C@H]2O)cc1Cc1ccc2c(c1)OCCO2 [Compound 6, (2S,3R,4R,5S,6R)-2-(5-((2,3-dihydrobenzo[b][1,4]dioxin-6-yl)methyl)-2-hydroxy-4-methoxyphenyl)-5-fluoro-6-(hydroxymethyl)-5-methyl-tetrahydro-2H-pyran-3,4-diol] | – | 71.6 ± 0.7% | 55.5 ± 1.7% | 0.000 g/0-4 hr | 0.047 ± 0.008 g/0-4 hr | – | – | – | – | – | 72.6% | 37 nM | 92.8% | 4.3 nM | – | –
7 | CCOc1ccc(Cc2cc([C@@H]3O[C@H](CO)C(F)(F)[C@H](O)[C@H]3O)c(O)cc2C)cc1 [Compound 47, (2S,3R,4R,6R)-2-(5-(4-ethoxybenzyl)-2-hydroxy-4-methylphenyl)-5,5-difluoro-6-(hydroxymethyl)tetrahydro-2H-pyran-3,4-diol] | 250 nM | – | – | – | – | 1.8 nM | 47.9% | – | – | 61.2% | – | – | – | – | – | –
8 | Cc1cc(O)c([C@@H]2O[C@H](CO)C(F)(F)[C@H](O)[C@H]2O)cc1Cc1ccc(Cl)s1 [Compound 110] | 95 nM | – | – | – | – | 5.7 nM | 75% | – | – | 82.4% | – | – | – | – | – | –
9 | Cc1cc(OCC#N)c([C@@H]2O[C@H](CO)C(F)(F)[C@H](O)[C@H]2O)cc1Cc1cc2ccccc2s1 [Compound 40, 2-[4-(benzothiophen-2-ylmethyl)-2-[(2S,3R,4R,6R)-5,5-difluoro-3,4-dihydroxy-6-(hydroxymethyl)tetrahydropyran-2-yl]-5-methyl-phenoxy]acetonitrile] | 176 nM | – | – | – | – | 3.5 nM | 54% | – | – | 85.4% | – | – | – | – | – | –
10 | COc1ccc(Cc2ccc(O)c([C@@H]3O[C@H](CO)C(F)(F)[C@H](O)[C@H]3O)c2)cc1 [Compound 86] | – | – | – | – | – | – | – | – | – | – | – | – | – | – | 17.4% | 69.5%
11 | COc1cc(C)c(Cc2cc3c(s2)CCN(C(=O)N2CCCC2)C3)cc1[C@@H]1O[C@H](CO)C(F)(F)[C@H](O)[C@H]1O [Compound 78] | – | – | – | – | – | – | – | – | – | – | – | – | – | – | 28.0% | 71.5%
